Values after ≈ are worked out from the molar mass of the structure shown.
Tests used:
Type in all cases: functional
Escherichia coli [1] = test: Anti-bacterial activity against Escherichia coli JM109 assessed as inhibition of bacterial growth
Staphylococcus aureus [2] = test: Anti-bacterial activity against Staphylococcus aureus ATCC 25923 assessed as inhibition of bacterial growth; conditions: Staphylococcus aureus, ATCC 25923; read-out: MIC
Klebsiella pneumoniae = test: Anti-bacterial activity against Klebsiella pneumoniae KPN325 assessed as inhibition of bacterial growth; conditions: Klebsiella pneumoniae, KPN325; read-out: MIC
Staphylococcus aureus [3] = test: Anti-bacterial activity against Staphylococcus aureus ATCC 29213 assessed as inhibition of bacterial growth; conditions: Staphylococcus aureus, ATCC 29213; read-out: MIC
Pseudomonas aeruginosa [4] = test: Anti-bacterial activity against Pseudomonas aeruginosa ATCC 27853 assessed as inhibition of bacterial growth; conditions: Pseudomonas aeruginosa, ATCC 27853; read-out: MIC
Staphylococcus aureus [5] = test: Anti-bacterial activity against Staphylococcus aureus CMCC (B) 26003 assessed as inhibition of bacterial growth
Staphylococcus aureus [6] = test: Anti-bacterial activity against Staphylococcus aureus ATCC 12600 assessed as inhibition of bacterial growth; conditions: Staphylococcus aureus, ATCC 12600; read-out: MIC
Pseudomonas aeruginosa [7] = test: Anti-bacterial activity against Pseudomonas aeruginosa ATCC 9027 assessed as inhibition of bacterial growth
Escherichia coli [8] = test: Anti-bacterial activity against Escherichia coli ATCC 25922 assessed as inhibition of bacterial growth
Candida albicans [9] = test: Anti-fungal activity against Candida albicans 90023 assessed as inhibition of fungal growth
Candida albicans [10] = test: Anti-fungal activity against Candida albicans assessed as inhibition of fungal growth; conditions: Candida albicans; read-out: MIC
Candida parapsilosis = test: Anti-fungal activity against Candida parapsilosis assessed as inhibition of fungal growth; conditions: Lodderomyces parapsilosis; read-out: MIC
Enterococcus faecalis = test: Anti-bacterial activity against Enterococcus faecalis V583 assessed as inhibition of bacterial growth
Staphylococcus aureus [11] = test: Anti-bacterial activity against Staphylococcus aureus CMCC (B) 26001 assessed as inhibition of bacterial growth
Staphylococcus aureus [12] = test: Anti-bacterial activity against Staphylococcus aureus ATCC 1708 assessed as inhibition of bacterial growth; conditions: Staphylococcus aureus, ATCC 1708; read-out: MIC
Pseudomonas aeruginosa [13] = test: Anti-bacterial activity against Pseudomonas aeruginosa ST235 assessed as inhibition of bacterial growth; conditions: Pseudomonas aeruginosa, ST235; read-out: MIC
Pseudomonas aeruginosa [14] = test: Anti-bacterial activity against Pseudomonas aeruginosa ATCC 15442 assessed as inhibition of bacterial growth; conditions: Pseudomonas aeruginosa, ATCC 15442; read-out: MIC
Staphylococcus aureus [15] = test: Anti-bacterial activity against methicillin-resistant Staphylococcus aureus ATCC 43300 assessed as inhibition of bacterial growth; conditions: Staphylococcus aureus, ATCC 43300; read-out: MIC
Candida tropicalis = test: Anti-fungal activity against Candida tropicalis assessed as inhibition of fungal growth; conditions: Candida tropicalis; read-out: MIC
Staphylococcus aureus [16] = test: Anti-bacterial activity against Staphylococcus aureus ATCC 6538 assessed as inhibition of bacterial growth
Staphylococcus aureus [17] = test: Anti-bacterial activity against methicillin-resistant Staphylococcus aureus N315 assessed as inhibition of bacterial growth; conditions: Staphylococcus aureus, N315; read-out: MIC
Pseudomonas aeruginosa [18] = test: Anti-bacterial activity against Pseudomonas aeruginosa CMCC (B) 10104 assessed as inhibition of bacterial growth; conditions: Pseudomonas aeruginosa, CMCC (B) 10104; read-out: MIC
Acinetobacter baumannii = test: Anti-bacterial activity against Acinetobacter baumannii R674 assessed as inhibition of bacterial growth

| Structure (SMILES) | MIC (Escherichia coli [1]) [µM] | MIC (Staphylococcus aureus [2]) [µM] | MIC (Klebsiella pneumoniae) [µM] | MIC (Staphylococcus aureus [3]) [µM] | MIC (Pseudomonas aeruginosa [4]) [µM] | MIC (Staphylococcus aureus [6]) [µM] | MIC (Pseudomonas aeruginosa [7]) [µM] | MIC (Escherichia coli [8]) [µM] | MIC (Candida albicans [9]) [µM] | MIC (Candida albicans [10]) [µM] | MIC (Candida parapsilosis) [µM] | MIC (Enterococcus faecalis) [µM] | MIC (Staphylococcus aureus [11]) [µM] | MIC (Staphylococcus aureus [12]) [µM] | MIC (Pseudomonas aeruginosa [13]) [µM] | MIC (Pseudomonas aeruginosa [14]) [µM] | MIC (Candida tropicalis) [µM] | MIC (Staphylococcus aureus [16]) [µM] | MIC (Pseudomonas aeruginosa [18]) [µM] | MIC (Acinetobacter baumannii) [µM] | further results |
| --- | --- | --- | --- | --- | --- | --- | --- | --- | --- | --- | --- | --- | --- | --- | --- | --- | --- | --- | --- | --- | --- |
| CCOC(=O)C1=C(CN2CCN(C(=O)/C(=N/OC)c3csc(N)n3)CC2)NC(=O)NC1c1ccc(F)cc1 (stereo not given) | 117 (≈ 63.8 µg/mL) | 59 (≈ 32.2 µg/mL) | 117 (≈ 63.8 µg/mL) | 59 (≈ 32.2 µg/mL) | 117 (≈ 63.8 µg/mL) | 59 (≈ 32.2 µg/mL) | 117 (≈ 63.8 µg/mL) | 59 (≈ 32.2 µg/mL) | 6 (≈ 3.27 µg/mL) | 447 (≈ 244 µg/mL) | 447 (≈ 244 µg/mL) | 29 (≈ 15.8 µg/mL) | 59 (≈ 32.2 µg/mL) | 117 (≈ 63.8 µg/mL) | 117 (≈ 63.8 µg/mL) | 59 (≈ 32.2 µg/mL) | 447 (≈ 244 µg/mL) | 117 (≈ 63.8 µg/mL) | 117 (≈ 63.8 µg/mL) | 59 (≈ 32.2 µg/mL) | MIC (Staphylococcus aureus [5]): 235 µM (≈ 128 µg/mL); MIC (Staphylococcus aureus [15]): 59 µM (≈ 32.2 µg/mL); MIC (Staphylococcus aureus [17]): 117 µM (≈ 63.8 µg/mL) |
| CCOC(=O)C1=C(CN2CCN(C(=O)/C(=N/OC)c3csc(N)n3)CC2)NC(=O)NC1c1ccc(O)c(Br)c1 (stereo not given) | 52 (≈ 32.4 µg/mL) | 26 (≈ 16.2 µg/mL) | 52 (≈ 32.4 µg/mL) | 52 (≈ 32.4 µg/mL) | 52 (≈ 32.4 µg/mL) | 52 (≈ 32.4 µg/mL) | 103 (≈ 64.1 µg/mL) | 52 (≈ 32.4 µg/mL) | 104 (≈ 64.7 µg/mL) | 415 (≈ 258 µg/mL) | 415 (≈ 258 µg/mL) | 13 (≈ 8.09 µg/mL) | 52 (≈ 32.4 µg/mL) | 103 (≈ 64.1 µg/mL) | 52 (≈ 32.4 µg/mL) | 52 (≈ 32.4 µg/mL) | 415 (≈ 258 µg/mL) | 52 (≈ 32.4 µg/mL) | 103 (≈ 64.1 µg/mL) | 26 (≈ 16.2 µg/mL) | MIC (Staphylococcus aureus [5]): 103 µM (≈ 64.1 µg/mL); MIC (Staphylococcus aureus [15]): 26 µM (≈ 16.2 µg/mL); MIC (Staphylococcus aureus [17]): 103 µM (≈ 64.1 µg/mL) |
| OC(Cn1cncn1)(Cn1cncn1)c1ccc(F)cc1F [FLUCONAZOLE] | – | – | – | – | – | – | – | – | 7 (≈ 2.14 µg/mL) | 13 (≈ 3.98 µg/mL) | 13 (≈ 3.98 µg/mL) | – | – | – | – | – | 26 (≈ 7.96 µg/mL) | – | – | – | – |
| CCOC(=O)C1=C(CN2CCN(C(=O)/C(=N/OC)c3csc(N)n3)CC2)NC(=O)NC1c1ccc(C#N)cc1 (stereo not given) | 29 (≈ 16 µg/mL) | 58 (≈ 32.1 µg/mL) | 116 (≈ 64.1 µg/mL) | 58 (≈ 32.1 µg/mL) | 58 (≈ 32.1 µg/mL) | 58 (≈ 32.1 µg/mL) | 58 (≈ 32.1 µg/mL) | 29 (≈ 16 µg/mL) | 115 (≈ 63.6 µg/mL) | 460 (≈ 254 µg/mL) | 460 (≈ 254 µg/mL) | 29 (≈ 16 µg/mL) | 232 (≈ 128 µg/mL) | 58 (≈ 32.1 µg/mL) | 58 (≈ 32.1 µg/mL) | 58 (≈ 32.1 µg/mL) | 460 (≈ 254 µg/mL) | 58 (≈ 32.1 µg/mL) | 58 (≈ 32.1 µg/mL) | 29 (≈ 16 µg/mL) | – |

— ChEMBL document CHEMBL5505979, “Novel aminothiazoximone-corbelled ethoxycarbonylpyrimidones with antibiofilm activity to conquer Gram-negative bacteria through potential multitargeting effects” (Eur J Med Chem, 2024)
